Publication PMC7367873, “Dissecting the sequence determinants for dephosphorylation by the catalytic subunits of phosphatases PP1 and PP2A” (Nature Communications, 2020)

What was measured:
[1] = tested on: GFP-14-3-3β and its binding proteins; experiment: GFP-14-3-3β co-IP with LC-MS/MS label-free quantification, untreated versus PP1c-treated; set-up: species or system human
Description: (§1) HeLa Kyoto cells expressing transiently transfected pEGFP(C1)-14-3-3β or pEGFP(C1) control plasmid, were incubated with 20 nM Calyculin A (# 9902 S, Cell Signaling Technology) for 12 min. Cells were washed twice on ice with cold PBS and after addition of 500 µL lysis buffer (100 mM NaCl, 10 mM Tris, 0.1% IGEPAL, 1 mM EDTA, 1 mM EGTA, 20 nM Calyculin A, 1x cOmplete Mini protease inhibitor cocktail (Sigma), 1 mM DTT, 1 mM MnCl2) cells were scraped from plates, lysed by 10 pushes through an injection needle (21 G, BD) and the insoluble fraction was pelleted by centrifugation (10 min, 10^4 rcf, 4 °C). Supernatants were then subjected to incubation with 1 µM recombinant phosphatase or buffer for 1 h at 30 °C. Next, we subjected samples to immunoprecipitation using α-GFP nanobodies covalently coupled to agarose beads (2 h, 4 °C, obtained from the EMBL PEPcore Core Facility). Beads were then washed three times with lysis buffer and samples were eluted in 1x LDS sample buffer (Thermo Fisher Scientific) by heating to 70 °C for 10 min.
(§2) The samples were then reduced with 25 mM dithiothreitol (10 min at 70 °C) and alkylated with 55 mM chloroacetamide (room temperature, 30 min, in the dark). Proteins were run on a precast 4–12% NuPAGE gel (ThermoFisher Scientific) for about 1 cm to concentrate the sample prior to in-gel tryptic digestion, which was performed according to the standard procedures. The peptides obtained were dried to completeness and resuspended in 12 µL of buffer A (0.1% FA), and 5 µL of sample were injected per MS measurement. The experiment was carried out in three independent replicates.
(§3) The samples were analyzed by LC-MS/MS on a Dionex Ultimate 3000 nano-HPLC coupled online to a Fusion Lumos Tribrid mass spectrometer (Thermo Fisher Scientific). Peptides were delivered to a trap column (75 µm × 2 cm, packed in-house with 5 µm C18 resin; Reprosil PUR AQ, Dr. Maisch) and washed using 0.1% FA at a flow rate of 5 µL/min for 10 min. Subsequently, peptides were transferred to an analytical column (75 µm × 45 cm, packed in-house with 3 µm C18 resin; Reprosil Gold) applying a flow rate of 300 nL/min and separated using a 60 min linear gradient from 4% to 32% LC solvent B (0.1% FA, 5% DMSO in ACN) in LC solvent A (0.1% FA in 5% DMSO). The eluate from the analytical column was sprayed via a stainless steel emitter (Thermo Fisher Scientific) at a source voltage of 2.1 kV into the mass spectrometer. The transfer capillary was heated to 275 °C. The Fusion Lumos was operated in positive ionization mode and data-dependent acquisition (DDA), automatically switching between MS1 and MS2 spectrum acquisition. Full scan MS1 spectra were recorded in the Orbitrap from 360 to 1300 m/z at a resolution of 60k (automatic gain control (AGC) target value of 4e5 charges, maximum injection time (maxIT) of 50 ms). Up to 20 peptide precursors were isolated (isolation window, 1.7 m/z; maximum injection time, 25 ms; and AGC value, 1e5), fragmented by high-energy collision-induced dissociation (HCD) using 30% normalized collision energy (NCE), and analyzed at a resolution of 15k in the Orbitrap. Precursor ions that were singly charged, unassigned, or with charge states >6+ were excluded. The dynamic exclusion duration of fragmented precursor ions was 20 s.
(§4) Peptide and protein identification and LFQ were performed using MaxQuant software (version 1.6.1.0)[64] by searching the data against all canonical protein sequences as annotated in the Swissprot reference database (human proteins only, 20193 entries, downloaded 22 March 2016, internally annotated with PFAM domains) using the embedded search engine Andromeda[65]. The MaxQuant search was performed using two variable modifications; oxidation of methionine and N-terminal protein acetylation. Carbamidomethylation on cysteines was specified as a fixed modification. Trypsin (Trypsin/P) was specified as the proteolytic enzyme with up to two allowed missed cleavage sites.

[2] = tested on: GFP-14-3-3β; experiment: GFP-14-3-3β co-IP with LC-MS/MS, untreated GFP-14-3-3β versus GFP control (14-3-3 interactome); format: binding, human
Description: as §1, §2, §3, §4

[3] = pairwise comparison PP1 vs untreated, student's t-test, 3 replicates each, LC-MS/MS label-free quantification
[4] = pairwise comparison untreated GFP-14-3-3β vs GFP, student's t-test, 3 replicates each, LC-MS/MS label-free quantification
[5] = log2 difference, pairwise comparison PP1 vs untreated, label-free quantification, 3 replicates each
[6] = log2 difference, pairwise comparison untreated vs GFP, label-free quantification, 3 replicates each
[7] = PP1 vs untreated, label-free quantification
[8] = untreated vs GFP, label-free quantification
[9] = PP1 vs untreated, LFQ intensities, replicates 1-3
[10] = untreated vs GFP, LFQ intensities, replicates 1-3
[11] = GFP-14-3-3β co-IP LC-MS/MS, PP1 vs untreated, student's t-test, label-free quantification, 3 replicates each
[12] = GFP-14-3-3β co-IP LC-MS/MS, untreated vs GFP, student's t-test, label-free quantification, 3 replicates each
[13] = pairwise comparison PP1 vs untreated
[14] = pairwise comparison untreated vs GFP

For SRGAP2, the “Difference (log2), PP1 vs untreated” value [1, 3] was -5.683 log2 and the “Difference (log2), untreated vs GFP” value [2, 4] was 5.241 log2.

ATP5B was tested, and the “Difference (log2), PP1 vs untreated” value [1, 5] was 1.371 and the “Difference (log2), untreated vs GFP” value [2, 6] was -0.3021.

For G3BP1, the “Difference (log2), PP1 vs untreated” value [1, 7] was 0.9288 log2 and the “Difference (log2), untreated vs GFP” value [2, 8] was -0.3554 log2.

With MYO5B the “Difference (log2), PP1 vs untreated” value [1, 7] was 1.198 log2 and the “Difference (log2), untreated vs GFP” value [2, 8] was -1.223 log2.

YWHAE was tested, and the “Difference (log2), PP1 vs untreated” value [1, 9] was -1.3 log2 and the “Difference (log2), untreated vs GFP” value [2, 10] was 6.648 log2.

PLEC was tested, and the “Difference (log2), PP1 vs untreated” value [1, 5] was 1.29 and the “Difference (log2), untreated vs GFP” value [2, 6] was -0.5388.

For WWC2, the “Difference (log2), PP1 vs untreated” value [1, 3] was -3.571 log2 and the “Difference (log2), untreated vs GFP” value [2, 4] was 4.409 log2.

For TSC2, the “Difference (log2), PP1 vs untreated” value [1, 3] was -4.834 log2 and the “Difference (log2), untreated vs GFP” value [2, 4] was 4.192 log2.

In the case of LGALS3, the “Difference (log2), PP1 vs untreated” value [1, 9] is reported as -0.9155 log2 and the “Difference (log2), untreated vs GFP” value [2, 10] is reported as 0.3389 log2.

For HSPA1B;HSPA1A, the “Difference (log2), PP1 vs untreated” value [1, 9] was -0.7937 log2 and the “Difference (log2), untreated vs GFP” value [2, 10] was 0.2148 log2.

For TUBB4B, the “Difference (log2), PP1 vs untreated” value [1, 11] was -0.5591 log2 and the “Difference (log2), untreated vs GFP” value [2, 12] was -0.8458 log2.

TPM4 was tested, and the “Difference (log2), PP1 vs untreated” value [1, 3] was -3.308 log2 and the “Difference (log2), untreated vs GFP” value [2, 4] was 0.1774 log2.

In the case of LMO7, the “Difference (log2), PP1 vs untreated” value [1, 3] is reported as -2.202 log2 and the “Difference (log2), untreated vs GFP” value [2, 4] is reported as 0.9984 log2.

In the case of DTX3L, the “Difference (log2), PP1 vs untreated” value [1, 13] is reported as -0.03751 log2 and the “Difference (log2), untreated vs GFP” value [2, 14] is reported as 0.3421 log2.

TOP2A was tested, and the “Difference (log2), PP1 vs untreated” value [1, 11] was -0.6623 log2 and the “Difference (log2), untreated vs GFP” value [2, 12] was 3 log2.

For NSUN2, the “Difference (log2), PP1 vs untreated” value [1, 5] was 1.3958 and the “Difference (log2), untreated vs GFP” value [2, 6] was -0.08076.

With NUP210 the “Difference (log2), PP1 vs untreated” value [1, 9] was -1.109 log2 and the “Difference (log2), untreated vs GFP” value [2, 10] was 2.632 log2.

In the case of NUMA1, the “Difference (log2), PP1 vs untreated” value [1, 9] is reported as -0.7467 log2 and the “Difference (log2), untreated vs GFP” value [2, 10] is reported as 2.2393 log2.

For SPTAN1, the “Difference (log2), PP1 vs untreated” value [1, 3] was -2.033 log2 and the “Difference (log2), untreated vs GFP” value [2, 4] was 0.5148 log2.

For FLNA, the “Difference (log2), PP1 vs untreated” value [1, 3] was -2.217 log2 and the “Difference (log2), untreated vs GFP” value [2, 4] was -0.8027 log2.

In the case of SHROOM3, the “Difference (log2), PP1 vs untreated” value [1, 3] is reported as -2.387 log2 and the “Difference (log2), untreated vs GFP” value [2, 4] is reported as 4.814 log2.

In the case of TRIM29, the “Difference (log2), PP1 vs untreated” value [1, 11] is reported as -0.3516 log2 and the “Difference (log2), untreated vs GFP” value [2, 12] is reported as 0.4899 log2.

CD44 was tested, and the “Difference (log2), PP1 vs untreated” value [1, 3] was -2.392 log2 and the “Difference (log2), untreated vs GFP” value [2, 4] was 0.8931 log2.

SOGA1 was tested, and the “Difference (log2), PP1 vs untreated” value [1, 7] was 0.818 log2 and the “Difference (log2), untreated vs GFP” value [2, 8] was -0.02242 log2.

In the case of BRAF, the “Difference (log2), PP1 vs untreated” value [1, 9] is reported as -1.253 log2 and the “Difference (log2), untreated vs GFP” value [2, 10] is reported as 7.361 log2.

With HEATR1 the “Difference (log2), PP1 vs untreated” value [1, 9] was -1.168 log2 and the “Difference (log2), untreated vs GFP” value [2, 10] was 3.268 log2.

With HSPA8 the “Difference (log2), PP1 vs untreated” value [1, 11] was -0.3347 log2 and the “Difference (log2), untreated vs GFP” value [2, 12] was -0.3706 log2.

HERC2 was tested, and the “Difference (log2), PP1 vs untreated” value [1, 13] was 0.111 log2 and the “Difference (log2), untreated vs GFP” value [2, 14] was -0.06655 log2.

With YWHAQ the “Difference (log2), PP1 vs untreated” value [1, 9] was -1.354 log2 and the “Difference (log2), untreated vs GFP” value [2, 10] was 7.871 log2.

DNMBP was tested, and the “Difference (log2), PP1 vs untreated” value [1, 3] was -4.455 log2 and the “Difference (log2), untreated vs GFP” value [2, 4] was 3.515 log2.

XRCC5 was tested, and the “Difference (log2), PP1 vs untreated” value [1, 13] was 0.08186 log2 and the “Difference (log2), untreated vs GFP” value [2, 14] was -0.1105 log2.

In the case of SSRP1, the “Difference (log2), PP1 vs untreated” value [1, 7] is reported as 0.7419 log2 and the “Difference (log2), untreated vs GFP” value [2, 8] is reported as 1.339 log2.

In the case of LAMA5, the “Difference (log2), PP1 vs untreated” value ([1]; PP1 vs untreated, LFQ intensities, 3 replicates each) is reported as 0.4607 log2 and the “Difference (log2), untreated vs GFP” value ([2]; untreated vs GFP, LFQ intensities, 3 replicates each) is reported as -1.96 log2.

For NAV1, the “Difference (log2), PP1 vs untreated” value [1, 13] was -0.101 log2 and the “Difference (log2), untreated vs GFP” value [2, 14] was 1.95 log2.
